According to patent US7094753B2, “Somatostatin analog and uses thereof” (Societe de Conseils de Recherches et d'Applications …, priority 2001, dated 2006):
Where two headings read alike, the source gives them in different places. Bridge positions count the residues as written; N and C are the ends. Square brackets hold non-standard residues; d marks the D form. Peptide text beside a SMILES is read from it.

Tests used:
[1] = test system: GH-secreting adenoma cells; conditions: for suppression of GH: 10 nM; for mean maximal GH suppression: at nanomolar concentrations; for EC50: read-out: EC50 of inhibition of GH release
Description: (§1) GH and PRL were measured using commercial immunoradiometric kits (Immunotech, Marseilles, France). Normal GH values ranged from 0.2–2.4 μg/L; normal PRL values ranged from 1–24 μg/L in women and from 1–17 μg/L in men. After an ethanol-acid extraction, the plasma IGF-I assay was performed using the IGF-I RIA kit from Nichols Institute Diagnostics (San Juan Capistrano, Calif.).
(§2) A portion of each tumor obtained at surgery was dissociated by mechanical and enzymatic methods. […] Tumor cells were initially cultured in DMEM supplemented with 10% FCS for 3 days. On day 3, the cells were washed and plated in multiwell culture dishes (Costar 3524, Brumath, France) coated with extracellular matrix from bovine endothelial corneal cells as previously described (Jaquet P, et al., 1985, Horm Res. 22:153–163.) at a density of 2×10^4 cells/well. When they were attached to the matrix on days 5–8, depending on the culture, the medium was removed and replaced with DMEM supplemented with 2% FCS, antibiotics, transferrin, and selenium as previously described (Jaquet P, et al., 1985, Horm Res. 22:153–163.). […] Each drug concentration was tested in quadruplicate.
(§3) SRIF-14 was purchased from Sigma (Saint-Quentin Fallavier, France). […] The native SRIF and SRIF analogs were dissolved in 0.01 mol/L acetic acid containing 0.1% purified serum albumin (Life Technologies, Inc., Cergy-Pontoise, France). The drugs were stored at −80 C. as 10^−3 mol/L solutions. For each experiment, fresh working solutions were prepared from a new aliquot.
(§4) The results are presented as the mean±SEM. Statistical significance between two unpaired groups was determined by the Mann-Whitney test. To measure the strength of association between the pairs of variables without specifying dependencies, Spearman order correlation's were used. P<0.05 was considered significant for all tests.

[2] = test system: mixed GH-/PRL-secreting tumor cells; assay: Inhibition of PRL release in mixed GH-/PRL-secreting tumor cell cultures; type: cell-based, human; conditions: five tumor cell cultures (A1, A2, A7, A9, A10); for mean maximal PRL suppression: at 10 nmol/L
Description: as §1, §2, §3, §4

[3] = test system: GH; assay: Acute octreotide test in acromegalic patients (GH decrease); type: in vivo, human; conditions: for mean GH suppression: single 200 μg injection, GH 2–6 h after injection vs basal; for Percent inhibition vs. GH basal value: 2–6 h after 200 μg sc; for GH under octreotide: mean GH 2–6 h after 200 μg sc
Description: Ten acromegalic patients (seven women and three men), aged 26–62 years, presenting with macroadenoma were studied. Their endocrine status and the neuroradiological characterization of the pituitary adenomas were documented before treatment. Basal GH levels were the mean of three random samples obtained between 0800–0900 h. The basal IGF-I value was evaluated under fasting conditions between 0800–0900 h. […] All patients underwent transsphenoidal surgery.
as §1

[4] = octreotide partially responsive tumors (A6–A10)
[5] = octreotide-sensitive tumors (A1–A5)

Octreotide
suppression of GH [1, 4]: 26±7%
mean maximal GH suppression [1, 5]: 36±7%
EC50 ([1]; cultures from the 5 octreotide partially responsive tumors (A6–A10)): 200 ± 145 pM
EC50 ([1]; cultures from the 5 octreotide-sensitive tumors (A1–A5), 8-h period): 55 ± 15 pM
mean maximal PRL suppression [2]: 34±7%
mean GH suppression ([3]; five full octreotide responders): 79±7%
mean GH suppression ([3]; five partial octreotide responders): 33±6%
Percent inhibition vs. GH basal value ([3]; patient A1): 91%
GH under octreotide ([3]; patient A1, basal 11): 1 µg/L
Percent inhibition vs. GH basal value ([3]; patient A2): 82%
GH under octreotide ([3]; patient A2, basal 22): 4 µg/L
Percent inhibition vs. GH basal value ([3]; patient A3): 76%
GH under octreotide ([3]; patient A3, basal 109): 26 µg/L
Percent inhibition vs. GH basal value ([3]; patient A4): 75%
GH under octreotide ([3]; patient A4, basal 141): 36 µg/L
Percent inhibition vs. GH basal value ([3]; patient A5): 75%
GH under octreotide ([3]; patient A5, basal 47): 12 µg/L
Percent inhibition vs. GH basal value ([3]; patient A6): 40%
GH under octreotide ([3]; patient A6, basal 5): 3 µg/L
Percent inhibition vs. GH basal value ([3]; patient A7): 39%
GH under octreotide ([3]; patient A7, basal 26): 15.8 µg/L
Percent inhibition vs. GH basal value ([3]; patient A8): 37%
GH under octreotide ([3]; patient A8, basal 13): 8.2 µg/L
Percent inhibition vs. GH basal value ([3]; patient A9): 29%
GH under octreotide ([3]; patient A9, basal 141): 100 µg/L
Percent inhibition vs. GH basal value ([3]; patient A10): 23%
GH under octreotide ([3]; patient A10, basal 195): 151 µg/L

CC(C)[C@@H]1NC(=O)[C@H](CCCCN)NC(=O)[C@@H](Cc2c[nH]c3ccccc23)NC(=O)[C@H](Cc2ccc(O)c(I)c2)NC(=O)[C@@H](NC(=O)[C@H](N)Cc2ccccc2)CSSC[C@@H](C(=O)N[C@H](C(N)=O)[C@@H](C)O)NC1=O [Formula (I), D-Phe-c(Cys-Tyr(I)-D-Trp-Lys-Val-Cys)-Thr-NH2]
maximal GH suppression [1, 4]: 44±5%
suppression of GH [1, 4]: 44±5%
mean maximal GH suppression [1, 5]: 44±5%
mean maximal PRL suppression [2]: 51±5%

CC[C@@H]1NC(=O)[C@H](CCCCN)NC(=O)[C@@H](Cc2c[nH]c3ccccc23)NC(=O)[C@H](Cc2ccc(O)cc2)NC(=O)[C@@H](NC(=O)[C@@H](Cc2ccccc2)NS(=O)(=O)CCN2CCN(CCO)CC2)CSSC[C@@H](C(=O)N[C@H](C(N)=O)[C@@H](C)O)NC1=O [Compound A]
maximal GH suppression [1, 4]: 31±5%
maximal mean GH suppression ([1]; octreotide-sensitive tumors (A1–A5), at 0.1 nmol/L): 41±7%
mean maximal PRL inhibition [2]: 34±5%

C[C@H](N)C(=O)NCC(=O)N[C@H]1CSSC[C@@H](C(=O)O)NC(=O)[C@H](CO)NC(=O)[C@H]([C@@H](C)O)NC(=O)[C@H](Cc2ccccc2)NC(=O)[C@H]([C@@H](C)O)NC(=O)[C@H](CCCCN)NC(=O)[C@H](Cc2c[nH]c3ccccc23)NC(=O)[C@H](Cc2ccccc2)NC(=O)[C@H](Cc2ccccc2)NC(=O)[C@H](CC(N)=O)NC(=O)[C@H](CCCCN)NC1=O [Somatostatin-14]
maximal GH suppression compared with Compound B [1, 4]: equally achieved
dose-related inhibition of PRL release compared with Compound B [2]: similarly achieved

C[C@@H](O)[C@@H]1NC(=O)[C@H](CCCCN)NC(=O)[C@@H](Cc2c[nH]c3ccccc23)NC(=O)[C@H](Cc2ccccc2)NC(=O)[C@H](Cc2ccccc2)NC(=O)[C@@H](N)CSSC[C@@H](C(N)=O)NC(=O)[C@H](Cc2ccccc2)NC1=O [Compound B] (H-CFF[dW]KTFC-NH2; disulfide 1-8)
maximal GH suppression [1, 4]: 38±7%
concentration producing maximal inhibition of GH release [1, 5]: 10 nmol/L
mean maximal PRL inhibition [2]: 52±6%
